Patent publication US20150297637A1, “ACTIVATED CARBON COMPRISING AN ADSORBED IODIDE SALT IN A METHOD FOR TREATING CHRONIC BRONCHITIS” (PHARMALUNDENSIS AB, priority 2012, published 2015)
“Also recorded” adds a separate entry of the source.

System: cough and sputum production in a patient with chronic bronchitis
Assay: Use of KI-impregnated charcoal for treating a patient with chronic bronchitis
Format: in vivo, human
Details: one patient; capsule with 10 mg KI per day for one month
Text: A person has for several years experienced increasing problems with cough and mucous production for long periods. They were diagnosed as suffering from chronic bronchitis. They were prescribed standard treatment including corticosteroids, anti-cholinergics, beta2-stimulants and mucolytics such as acetylcysteine.
Since the chronic bronchitis caused considerable inconvenience, they examined alternative ways to reduce the symptoms.
To clarify if the improvement of the chronic bronchitis by KI-impregnated activated charcoal was caused by iodide, […] then took a capsule with 10 mg (which amount is considerably higher than the amount of iodide in the KI-impregnated activated charcoal, 300 mg×1.62%=4.9 mg) KI per day for one month.
Finally, they once again took 300 mg activated charcoal impregnated with 1.6% KI in a 00 vegetable capsule for one month.

[I-].[K+] [KI, Potassium iodide]
Cough and sputum production: did not reduce the cough or sputum production at all; also recorded: no improvement of cough or sputum production
